Measurements from paper PMC9920986 (Molecules, 2023).
Where two headings read alike, the source gives them in different places.

How the values were obtained:
NQO2 = settings: cited from earlier work; for IC50: Figure 1
[1] = target: T1, human recombinant NRH:quinone oxidoreductase (NQO2) (Homo sapiens, UniProt P16083); assay: biochemical; settings: for inhibition at 10 µM: read-out: NQO2 Inhibition, %
T1 construct: purchased Sigma Q0380
T1 sequence (P16083 1-231): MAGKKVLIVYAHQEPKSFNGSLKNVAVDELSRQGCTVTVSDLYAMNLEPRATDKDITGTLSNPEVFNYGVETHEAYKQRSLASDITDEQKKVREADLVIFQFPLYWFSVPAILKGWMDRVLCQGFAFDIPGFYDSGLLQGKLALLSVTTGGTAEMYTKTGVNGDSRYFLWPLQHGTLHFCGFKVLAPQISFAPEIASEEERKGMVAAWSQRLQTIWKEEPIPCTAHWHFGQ
Protocol: The inhibition activity of all synthesized compounds at a concentration of 10 µM was preliminarily tested in vitro using human recombinant NRH:quinone oxidoreductase (NQO2).
The activity of recombinant human NQO2 (Sigma #Q0380, St. Louis, […], USA) was evaluated kinetically using menadione and N-benzyl-dihydronicotinamide (BNAH) as the substrate and co-substrate, respectively. All reagents and test compounds were dissolved in 50 mM Hepes-KOH (pH 7.4) containing 1 mM of β-octyl-D-glucopyranoside, 0.1 mg/mL BSA and 1 μM FAD. […] The solutions of the test compounds were pre-incubated for 5 min with 50 μL of human recombinant NQO2 (final concentration 42 ng/mL). Then, 25 μL of menadione was introduced at a final concentration of 100 μM. The reaction was started with 25 μL of 100 μM BNAH. The fluorescence of the co-substrate BNAH was followed at wavelengths of 370/440 nm at 37 °C using an Infinite M200 Pro microplate reader (Tecan, Grödig, Austria). The fluorescence data was fit according to a one-phase decay nonlinear regression to obtain slope values with Prism 8.0 (GraphPad Inc., San Diego, CA, USA). The activity in sample wells were normalized against negative control and enzyme-blank samples.

A549 cell line = assay: Antiproliferative assay (MTT colorimetric test, 72 h); format: cell-based; settings: n.a. = not active
Source text: (§1) The cytotoxicity of the synthesized oxindoles was studied using the A549 cell line in which the levels of NQO2 are increased (Table 4). […] The cytotoxicity of the compounds may be due to the inhibition of other enzymes associated with the activation of apoptosis in cancer cells, for example GSK3b or tyrosine kinases, or with the general non-specific toxicity of these compounds. Thus, the influence of NQO2 on A549 cell viability has not been established.
(§2) The A549 cells were maintained in F12-K (Gibco, Paisley, UK) supplemented with 10% fetal bovine serum (FBS, Gibco, UK), penicillin (100 UI mL^−1), streptomycin (100 µg mL^−1) and GlutaMax (2 mM, Gibco, UK). All cells line were cultured under a humidified atmosphere of 95% air/5% CO2 at 37 °C. Subconfluent monolayers, in the log growth phase, were harvested by a brief treatment with TrypLE Express solution (Gibco, UK) in phosphate-buffered saline (PBS, Capricorn Scientific, Ebsdorfergrund, Germany) and washed three times in serum-free PBS. The number of viable cells was determined by trypan blue exclusion.
(§3) The effects of the synthesized compounds on cell viability were determined using the MTT colorimetric test. All examined cells were diluted with the growth medium to 3.5 × 10^4 cells per mL and the aliquots (7 × 10^3 cells per 200 μL) were placed in individual wells in 96-multiplates (Eppendorf, Germany) and incubated for 24 h. […] After incubation, the cells were then treated with 40 μL MTT solution (3-(4,5-dimethylthiazol-2-yl)-2,5-diphenyltetrazolium bromide, 5 mg mL^−1 in PBS) and incubated for 4 h. After an additional 4 h incubation, the medium with MTT was removed and DMSO (150 μL) was added to dissolve the formazan crystals. The plates were shaken for 10 min. The optical density of each well was determined at 560 nm using a microplate reader GloMax Multi+ (Promega, Madison, WI, USA). Each of the tested compounds was evaluated for cytotoxicity in three separate experiments.

[2] = as above; format: cell-based; settings: human, n.a. = not active, read-out: A549, CC50
Source text: as §1, §2, §3

[3] = recombinant human NQO2, 100 μM menadione, 100 μM BNAH, read-out: NQO2 IC50 ± SEM

| Molecule | inhibition at 10 µM [1] [%] | CC50 at 72 h [2] [µM] | further results |
| --- | --- | --- | --- |
| COC(=O)Nc1ccc2[nH]cc(CCNC(C)=O)c2c1 [MCA-NAT] | – | – | IC50 (NQO2): 0.037 µM |
| (E,Z)-3-(4-Fluorobenzylidene)-2-oxindole [Compound 33] | – | – | NQO2 Inhibition, % ([1]; inhibition at 10 µM concentration): 19.46%; IC50 [1, 3]: > 50 µM; CC50 (A549 cell line): 38.6 ± 10.4 µM |
| O=C1Nc2ccc(Br)cc2C1=Cc1ccncc1 [Compound 11, 5-bromo-3-(4-pyridinylmethylidene)-2-oxindole] | 41.9 | 22.3 ± 1.42 | – |
| COc1cc(C=C2C(=O)Nc3ccc(NC(C)=O)cc32)cc(OC)c1OC [Compound 24, 3-(3,4,5-trimethoxybenzylidene)-5-acetylamino-2-oxindole] | – | 149 ± 2.63 | IC50 [1, 3]: 0.37 ± 0.01 µM |
| O=C1Nc2ccc(Br)cc2C1=Cc1ccc(Br)cc1 (mixture of isomers) [Compound 31, 3-(4-bromobenzylidene)-5-bromo-2-oxindole] | 68.6 | 242 ± 3.19 | – |
| O=C1Nc2ccc(Br)cc2C1=Cc1ccccn1 [Compound 3, 5-bromo-3-(2-pyridinylmethylidene)-2-oxindole] | – | 90.6 ± 1.5 | IC50 [1, 3]: > 50 µM |
| O=C1Nc2ccc([N+](=O)[O-])cc2C1=Cc1cccnc1 [Compound 9, 5-nitro-3-(3-pyridinylmethylidene)-2-oxidole] | – | 429 ± 24 | IC50 [1]: > 50 µM |
| O=C1Nc2ccccc2C1=Cc1cccs1 [Compound 37, 3-(2-thienylmethylidene)-2-oxindole] | 38.1 | 491 ± 19.9 | – |
| O=C1Nc2ccccc2/C1=C\c1ccccn1 [Compound 1, (E)-3-(2-pyridinylmethylidene)-2-oxindole] | – | 48 ± 4.42 | IC50 [1]: > 50 µM |
| COc1ccc(C=C2C(=O)Nc3ccccc32)cc1 [Compound 20, 3-((4-methoxyphenyl)methylene)-2-oxindole] | 40.8 | 54.8 | – |
| COc1ccc2[nH]cc(CCNC(C)=O)c2c1 [Melatonin] | – | – | IC50 (NQO2): 6 µM; NQO2 inhibition concentration range (NQO2): ~50 µM |
| O=C1Nc2ccc(Br)cc2C1=Cc1cccnc1 [Compound 8, 5-bromo-3-(3-pyridinylmethylidene)-2-oxindole] | 44.2 | 22.3 ± 1.42 | – |
| O=C1Nc2ccc(NC(=O)c3ccccc3)cc2C1=Cc1ccc(O)cc1 [Compound 19, 3-(4-hydroxybenzylidene)-5-benzoylamino-2-oxindole] | 62.9 | 412.2 ± 3.98 | – |
| O=C1Nc2ccccc2C1=Cc1ccco1 [Compound 34, 3-(2-furylmethylidene)-2-oxindole] | 59.9 | 595 ± 25.4 | – |
| CC(=O)Nc1ccc2c(c1)C(=Cc1ccccn1)C(=O)N2 [Compound 5, (E,Z)-3-(2-Pyridinylmethylidene)-5-acetamido-2-oxindole] | – | 136 | IC50 [1]: 41.1 ± 2.44 µM |
| COc1ccc(C=C2C(=O)Nc3ccc(NC(=O)c4ccccc4)cc32)cc1 [Compound 21, (E,Z)-3-(4-Methoxybenzylidene)-5-benzoylamino-2-oxindole] | – | 42.3 ± 8.3 | IC50 [1, 3]: > 50 µM |
| CC(=O)Nc1ccc2c(c1)C(=Cc1cccc(O)c1)C(=O)N2 [Compound 13, 3-(3-hydroxybenzylidene)-5-acetylamino-2-oxindole] | – | 176 ± 4.76 | IC50 [1]: 0.64 ± 0.04 µM |
